Measurements taken from ChEMBL document CHEMBL1156510, “Epidermal growth factor receptor and notch pathways participate in the tumor suppressor function of gamma-secretase” (2007).
Calls of active or inactive are those of the source. The rule behind the calls is not given here.

Columns and labels:
Mus musculus [1] = experiment: Reduction of amyloid beta in Tg2576 mouse plasma at 2.5 mg/kg/day; assay type: functional; parameters: scale not given: the % may be the effect or the level left
Mus musculus [2] = experiment: Reduction of amyloid beta in Tg2576 mouse brain at 2.5 mg/kg/day; assay type: functional; parameters: scale not given: the % may be the effect or the level left
Mus musculus [3] = experiment: Induction of hyperproliferative skin lesions assessed as epidermal hyperplasia in Nct+/- C57BL/6;129Svi mouse at 2.5 mg/kg/day; assay type: functional, organism-based
Fibroblast [4] = experiment: Inhibition of Nct-/- C57BL/6;129Svi mouse fibroblast cell proliferation; assay type: functional, cell-based
Fibroblast [5] = experiment: Inhibition of EGF induced Nct-/- C57BL/6;129Svi mouse fibroblast cell proliferation at 5 uM; assay type: functional, cell-based
Fibroblast [6] = experiment: Inhibition of EGF induced Nct+/+ C57BL/6129Svi mouse fibroblast cell proliferation at 5 uM; assay type: functional, cell-based; conditions: C57BL/6

Row | SMILES | Activity (Mus musculus [1]) | Activity (Mus musculus [2]) | Activity (Mus musculus [3]) | Activity (Fibroblast [4]) | Activity (Fibroblast [5]) | Activity (Fibroblast [6])
1 | C[C@H](NC(=O)[C@@H](O)c1cc(F)cc(F)c1)C(=O)N[C@@H]1C(=O)N(C)c2ccccc2-c2ccccc21 | >90% | >70% | Active | – | – | –
2 | COc1cc2ncnc(Nc3cccc(Cl)c3)c2cc1OC | – | – | – | Active | Active | inactive
